Measurements: ChEMBL document CHEMBL1159320, “Cytotoxic effect (on tumor cells) and in vitro antiviral activity against herpes simplex virus of synthetic spongiane diterpenes” (J Nat Prod, 2002)
≈ marks a conversion by molar mass, not a printed value. Calls of active or inactive are those of the source. The rule behind the calls is not given here.

Assays:
Vero = assay: Cytotoxicity against african green monkey Vero cells by EPTT method; assay type: cell-based; conditions: chlorocebus sabaeus
Human alphaherpesvirus 2 = assay: Antiviral activity against HSV2 infected in human HeP2 ells; assay type: functional
CHO = assay: Cytotoxicity against CHO cells after 48 hrs; assay type: cell-based, Cricetulus griseus; conditions: chinese hamster
[1] = Cytotoxicity against CHO cells after 48 hrs by MTT assay; assay type: cell-based, Cricetulus griseus; conditions: chinese hamster
[2] = Cytotoxicity against bovine Bon-Fib cells after 48 hrs by MTT assay; assay type: cell-based, Bos taurus; conditions: cattle
HeLa [3] = assay: Cytotoxicity against human HeLa cells after 48 hrs by MTT assay; assay type: functional
HEp-2 [4] = assay: Cytotoxicity against human Hep2 cells after 48 hrs by MTT assay; assay type: functional; conditions: HEp-2, 48 h
HeLa [5] = assay: Cytotoxicity against human HeLa cells after 48 hrs; assay type: functional
[6] = Cytotoxicity against bovine Bon-Fib cells after 48 hrs; assay type: cell-based, Bos taurus; conditions: cattle
L1210 = assay: Cytotoxicity against mouse L1210 cells; assay type: functional, cell-based
KB = assay: Cytotoxicity against human KB cells; assay type: functional, cell-based
Human alphaherpesvirus 1 = assay: Antiviral activity against HSV1 infected in mouse P388 cells; assay type: functional, organism-based; conditions: Human alphaherpesvirus 1, P388
P388 = assay: Antitumor activity against mouse P388 cells; assay type: functional, cell-based
HEp-2 [7] = assay: Cytotoxicity against human Hep2 cells after 48 hrs; assay type: functional
[8] = Cytotoxicity against pig PS cells; assay type: cell-based, Sus scrofa; conditions: read-out: ED50 (the source's name)

Row | SMILES | CC100 (Vero) [µg/mL] | Activity (Human alphaherpesvirus 2) | CC100 (CHO) [µg/mL] | CC50 at 48 h [1] [µg/mL] | CC50 at 48 h [2] [µg/mL] | CC50 (HeLa [3]) [µg/mL] | CC50 (HEp-2 [4]) [µg/mL] | CC100 [6] [µg/mL] | also measured
1 | CC1(C)CCC[C@]2(C)[C@H]3CC[C@H]4C(=O)OC5OC[C@H]4[C@@]53CC[C@@H]12 | 58 | 29 µg/mL |  |  |  |  |  |  | 
2 | COC(=O)[C@@H]1CC[C@@H]2[C@@]3(C)CCCC(C)(C)[C@@H]3CC[C@]23C(O)OC[C@H]13 (stereo partly drawn) | 30 | inactive | 30 | 24.5 (≈ 69.9 µM) | > 120 | 37.6 (≈ 107 µM) | 21.8 (≈ 62.3 µM) | > 120 | CC100 (HeLa [5]): 60 µg/mL
3 | CC1(C)CCC[C@]2(C)[C@H]3CC=C4C(=O)OC[C@H]4[C@]3(C)CC[C@@H]12 [ISOAGATHOLACTONE] | 40 | inactive |  |  |  |  |  |  | 
4 | CO[C@@H]1OC2OC(=O)[C@@H]3CC[C@@H]4[C@@]5(C)CCCC(C)(C)[C@@H]5CC[C@]14[C@H]23 (stereo partly drawn) | 120 | 60 µg/mL |  |  |  |  |  |  | 
5 | CC(=O)O[C@H]1C=C2C(=O)OC[C@@]2(O)[C@]2(C)[C@@H](OC(C)=O)C[C@H]3C(C)(C)CCC[C@]3(C)[C@@H]12 [DORISENONE A] |  |  |  |  |  |  |  |  | IC50 (L1210): 0.21 µg/mL (≈ 0.483 µM); IC50 (KB): 0.22 µg/mL (≈ 0.506 µM)
6 | CC1(C)CCC[C@]2(C)[C@H]3CC[C@@]4(O)C(=O)OC[C@H]4[C@]3(C)CC[C@@H]12 | 50 | 25 µg/mL |  |  |  |  |  |  | 
7 | CC[C@]1(O)C[C@H]2CN(CCc3c([nH]c4ccccc34)[C@@](C(=O)OC)(c3cc4c(cc3OC)N(C=O)[C@H]3[C@@](O)(C(=O)OC)[C@H](OC(C)=O)[C@]5(CC)C=CCN6CC[C@]43[C@@H]65)C2)C1 [VINCRISTINE] |  |  |  | 1.15 (≈ 1.39 µM) | 0.61 (≈ 0.739 µM) | 0.05 (≈ 0.0606 µM) | 0.05 (≈ 0.0606 µM) |  | 
8 | C[C@]12CC(=O)[C@@H](O)[C@](C)(CO)[C@@H]1CC[C@@]1(C)c3cocc3CC[C@H]21 [SPONGIADIOL] |  |  |  |  |  |  |  |  | IC50 (Human alphaherpesvirus 1): 0.25 µg/mL (≈ 0.752 µM); IC50 (P388): 0.5 µg/mL (≈ 1.5 µM)
9 | C[C@]12CC(=O)[C@H](O)[C@](C)(CO)[C@@H]1CC[C@@]1(C)c3cocc3CC[C@H]21 [EPISPONGIADIOL] |  |  |  |  |  |  |  |  | IC50 (Human alphaherpesvirus 1): 12.5 µg/mL (≈ 37.6 µM); IC50 (P388): 8 µg/mL (≈ 24.1 µM)
10 | CC1(C)CCC[C@]2(C)[C@H]3CC[C@]4(O)C(=O)OC[C@H]4[C@]3(C)CC[C@@H]12 | 56 | 28 µg/mL |  |  |  |  |  |  | 
11 | CO[C@H]1CC[C@]2(C)[C@H]3CCc4cocc4[C@]3(C)CC[C@H]2[C@@H]1C | 28 | 15 µg/mL | 36 | 13.3 (≈ 44 µM) | 17.9 (≈ 59.2 µM) | 13.6 (≈ 44.9 µM) | 10.4 (≈ 34.5 µM) | 36 | CC100 (HeLa [5]): 18 µg/mL
12 | CC1(C)CCC[C@]2(C)[C@H]3CCc4cocc4[C@]3(C)CC[C@@H]12 | 120 | 60 µg/mL |  |  |  |  |  |  | 
13 | CC1(C)CCC[C@]2(C)[C@H]3CC[C@H]4C(=O)OC5O[C@@H](O)[C@]3(CC[C@@H]12)[C@H]54 (stereo partly drawn) [DENDRILLOL- 1] | 8 | inactive | 13 | 5.1 (≈ 15.2 µM) | 18.9 (≈ 56.4 µM) | 14.8 (≈ 44.3 µM) | 3.46 (≈ 10.3 µM) | 13 | 
14 | CC1(C)C(=O)CC[C@]2(C)[C@H]3CCc4cocc4[C@]3(C)CC[C@@H]12 | 28 | inactive | 30 |  |  |  |  | 40 | 
15 | Nc1nc2c(ncn2COCCO)c(=O)[nH]1 [ACYCLOVIR] | > 600 | 6 µg/mL |  |  |  |  |  |  | 
16 | CC(=O)O[C@@H]1OC2OC(=O)[C@@H]3CC[C@@H]4[C@@]5(C)CCCC(C)(C)[C@@H]5CC[C@]14[C@H]23 (stereo partly drawn) | > 120 | 120 µg/mL |  |  |  |  |  |  | 
17 | CC(=O)O[C@H]1OC(=O)[C@@H]2CC[C@@H]3[C@@]4(C)CCCC(C)(C)[C@@H]4CC[C@@]3(C=O)[C@H]12 | 9 | 4.5 µg/mL | 24 | 4.96 (≈ 13.2 µM) | 18.3 (≈ 48.6 µM) | 6.27 (≈ 16.7 µM) | 4.43 (≈ 11.8 µM) | 24 | CC100 (HEp-2 [7]): 12 µg/mL; CC100 (HeLa [5]): 12 µg/mL
18 | CC1(C)CCC[C@]2(C)[C@H]3CC[C@H]4C(=O)OC[C@H]4[C@]3(C=O)CC[C@@H]12 | 28 | 14 µg/mL | 20 | 13.2 (≈ 41.3 µM) | 19 (≈ 59.6 µM) | 14.2 (≈ 44.5 µM) | 9.56 (≈ 30 µM) | 40 | 
19 | CC1(C)CCC[C@]2(C)[C@H]3CC[C@H]4C(=O)OC[C@]3(CC[C@@H]12)[C@@H]4CO | 37.5 | 18.7 µg/mL |  |  |  |  |  |  | 
20 | CCCC(=O)O[C@@H]1C[C@H]2C(C)(C)CCC[C@]2(C)[C@H]2CC[C@H]3C(=O)O[C@H]4O[C@@H](O)[C@]21[C@H]43 |  |  |  |  |  |  |  |  | CC50 [8]: 6.5 µg/mL (≈ 15.5 µM)
21 | C[C@]12C[C@@H](O)C(=O)[C@](C)(CO)[C@@H]1CC[C@@]1(C)c3cocc3CC[C@H]21 [ISOSPONGIADIOL] |  |  |  |  |  |  |  |  | IC50 (Human alphaherpesvirus 1): 2 µg/mL (≈ 6.02 µM); IC50 (P388): 5 µg/mL (≈ 15 µM)
22 | CC(=O)OC[C@@H]1[C@H]2CC[C@@H]3[C@@]4(C)CCCC(C)(C)[C@@H]4CC[C@@]13COC2=O | 28 | 14 µg/mL | 36 | 21.5 (≈ 59.4 µM) | 15.9 (≈ 43.8 µM) | 16.5 (≈ 45.5 µM) | 10.1 (≈ 27.7 µM) | 36 | CC100 (HeLa [5]): 18 µg/mL
